Data taken from BindingDB's records for doi:10.7270/Q21J98DJ (The Scripps Research Institute Molecular Screening Center, 2014).

The molecules below were run against Disintegrin and metalloproteinase domain-containing protein 17 (Homo sapiens, UniProt P78536) (assay: exosite inhibitors of ADAM17, dose response, biochemical (AID 743260)).
Disintegrin and metalloproteinase domain-containing protein 17, sequence (P78536 whole entry, the tested form may be a part): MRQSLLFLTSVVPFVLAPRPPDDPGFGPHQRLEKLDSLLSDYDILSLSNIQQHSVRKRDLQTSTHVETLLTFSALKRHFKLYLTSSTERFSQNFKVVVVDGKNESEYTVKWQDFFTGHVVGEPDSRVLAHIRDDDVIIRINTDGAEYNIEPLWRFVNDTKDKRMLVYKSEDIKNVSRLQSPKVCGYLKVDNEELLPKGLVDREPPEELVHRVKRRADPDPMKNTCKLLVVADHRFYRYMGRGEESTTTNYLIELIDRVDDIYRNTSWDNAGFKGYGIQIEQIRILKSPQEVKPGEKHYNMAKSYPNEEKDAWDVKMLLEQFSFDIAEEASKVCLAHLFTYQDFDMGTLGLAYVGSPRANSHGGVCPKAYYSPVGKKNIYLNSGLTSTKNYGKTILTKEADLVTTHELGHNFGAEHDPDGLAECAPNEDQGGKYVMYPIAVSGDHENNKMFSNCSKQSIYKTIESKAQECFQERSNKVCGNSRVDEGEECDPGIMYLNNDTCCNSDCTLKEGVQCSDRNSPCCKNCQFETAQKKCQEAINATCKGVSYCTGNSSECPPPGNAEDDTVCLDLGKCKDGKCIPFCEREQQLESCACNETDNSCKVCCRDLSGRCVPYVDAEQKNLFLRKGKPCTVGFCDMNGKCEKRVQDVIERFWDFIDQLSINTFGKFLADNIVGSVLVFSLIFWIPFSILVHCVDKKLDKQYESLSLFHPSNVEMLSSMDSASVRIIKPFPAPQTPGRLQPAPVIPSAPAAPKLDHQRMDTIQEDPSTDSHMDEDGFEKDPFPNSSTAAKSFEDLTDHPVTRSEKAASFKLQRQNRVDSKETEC
With `CCOc1ccc(NC(=O)Cc2sc(=O)n(-c3ccccc3)c2O)cc1` the IC50 was 5.73 µM. `Cn1c(-c2sccc2OCc2ccc(Cl)cc2Cl)n[nH]c1=S` gave an IC50 of 69.5 µM. In the case of `O=C(Cc1sc(=O)n(-c2ccccc2)c1O)Nc1ccccc1` [2-(2,4-diketo-3-phenyl-thiazolidin-5-yl)-N-phenyl-acetamide], the IC50 is reported as 46.7 µM. With `COc1cccc(C2c3oc(CO)cc(=O)c3OC(=N)C2C#N)c1` (stereo not drawn) [2-Amino-6-hydroxymethyl-4-(3-methoxy-phenyl)-8-oxo-4,8-dihydro-pyrano[3,2-b]pyran-3-carbonitrile] the IC50 was 69.5 µM. Molecule `COc1ccc(NC(=O)c2oc3ccccc3c2NC(=O)C(C)(C)C)cc1` [3-(2,2-dimethylpropanoylamino)-N-(4-methoxyphenyl)-1-benzofuran-2-carboxamide] has an IC50 of 69.5 µM. With `CCOc1cc(C(c2c(C)[nH][nH]c2=O)c2c(C)[nH][nH]c2=O)ccc1O` [4-[(3-ethoxy-4-hydroxyphenyl)-(3-methyl-5-oxo-1,2-dihydropyrazol-4-yl)methyl]-5-methyl-1,2-dihydropyrazol-3-one] the IC50 was 69.5 µM. `Cc1cccc(NNC2=c3cc(Br)ccc3=NC2=O)c1` [5-bromo-3-[2-(3-methylphenyl)hydrazinyl]indol-2-one] showed an IC50 of 69.5 µM. Molecule `C=c1cc(O)c(CN(C)C)c2oc(=Cc3ccco3)c(O)c12` [(2Z)-7-[(dimethylamino)methyl]-2-(furan-2-ylmethylidene)-6-hydroxy-4-methyl-1-benzofuran-3-one] has an IC50 of 17 µM. In the case of `CC1CCCN(CCCNC(=O)c2coc3nc4ccccc4nc23)C1` (stereo not drawn) [MLS000046706], the IC50 is reported as 69.5 µM. Work on `O=C1OCCN1C(=O)C1=[N+](c2ccc(Br)cc2)N[C-](c2ccccc2)[C@H]1c1ccc([N+](=O)[O-])cc1` [SMR000327268] yielded an IC50 of 69.5 µM. For `CC(=NNC(=N)Sc1cc(O)n(-c2ccc(Br)cc2)c1O)c1cccs1` [[1-(4-bromophenyl)-2,5-bis(oxidanylidene)pyrrolidin-3-yl] N''-(1-thiophen-2-ylethylideneamino)carbamimidothioate], the IC50 was 69.5 µM. `CC(=NNC(=N)Sc1cc(O)n(-c2ccccc2)c1O)c1cccs1` [[2,5-bis(oxidanylidene)-1-phenyl-pyrrolidin-3-yl] N'-[(E)-1-thiophen-2-ylethylideneamino]carbamimidothioate] showed an IC50 of 69.5 µM. For `COC(=O)c1cccc(Cn2c(Cl)c(CN=Nc3ccccc3C)sc2=O)c1` [methyl 3-[[4-chloro-5-[[(2-methylphenyl)hydrazinylidene]methyl]-2-oxo-1,3-thiazol-3-yl]methyl]benzoate], the IC50 was 69.5 µM.
